# Laboratory results: patent publication US20070010401A1, “Synergistic combination of a glyphosate herbicide and a triazole fungicide” (Cheminova A/S, priority 2005, published 2007)
# Experiments:
# Phakopsora pachyrhizi [1] = assay: Protective treatment of glyphosate resistant soybean plants three days prior to inoculation with soybean rust; format: in vivo; conditions: treated 3 days prior to inoculation, assessed four weeks after inoculation
# Text: (§1) In the Colby method, also referred to as the Limpels method, the action to be expected (E) for a given active ingredient combination obeys the so-called Colby formula. According to Colby, the expected (additive) action of active ingredients I+II using p+q ppm of active ingredient is: [formula] where ppm equals the milligrams of active ingredient (=a.i.) per liter of spray mixture; X equals the % action by component (a) using p ppm of active ingredient; Y equals the % action by component (b) using q ppm of active ingredient. If the action actually observed (O) is greater than the expected action (E), then the action of the combination is superadditive, i.e. there is a synergistic effect. For a more detailed description of the Colby formula, see Colby, S. R. “Calculating synergistic and antagonistic responses of herbicide combination,” Weeds, Vol. 15, pages 20-22; (1967); see also Limpel et al., Proc. NEWCC 16: 48-53 (1962), both of which are herein incorporated by reference in their entirety.
# Protective Treatment. […] Four weeks after inoculation, disease incidence and severity is determined on the first trifoliate. […]
# Phakopsora pachyrhizi [2] = assay: Curative treatment of glyphosate resistant soybean plants three days after inoculation with soybean rust; format: in vivo; conditions: treated 3 days after inoculation, assessed four weeks after inoculation
# Text: as §1
# Curative treatment. […] Four weeks after inoculation, disease incidence and severity is determined on the first trifoliate. […]
Compound,Observed control (O) % (Phakopsora pachyrhizi [1]; 30 g AI/hectare) [%],Observed control (O) % (Phakopsora pachyrhizi [2]; 30 g AI/hectare) [%],Observed control (O) % (Phakopsora pachyrhizi [1]; 100 g AI/hectare) [%],Observed control (O) % (Phakopsora pachyrhizi [2]; 100 g AI/hectare) [%]
"OC(Cn1cncn1)(c1ccc(F)cc1)c1ccccc1F (stereo not shown) [Flutriafol, flutriafol]",11,39,,
"O=C(O)CNCP(=O)(O)O [Glyphosate (acid), N-(phosphonomethyl)glycine]",,,82,27
